From ChEMBL document CHEMBL5346950, “Development of Biaryl-Containing Aldo-Keto Reductase 1C3 (AKR1C3) Inhibitors for Reversing AKR1C3-Mediated Drug Resistance in Cancer Treatment” (J Med Chem, 2023)

Legend:
[1] = Toxicity in BALB/c nude mouse xenografted with human MCF7 cells expressing AKR1C3 assessed as histopathological changes in kidney at 10 mg/kg, po administered every 2 days for 3 weeks in presence of doxorubicin by H and E staining based analysis; format: organism-based; settings: in vivo, 504 h
MCF7 [2] = assay: Restoration of doxorubicin sensitivity in human MCF7 cells assessed as inhibition of colony formation at 25 uM incubated for 12 days in presence of doxorubicin at 50 nM by crystal violet staining based assay relative to control; format: functional; settings: time 12 day
MCF7 [3] = assay: Synergistic antiproliferative activity against human MCF7 cells overexpressing AKR1C3 assessed as dose reduction index for doxorubicin at 25 uM incubated for 72 hrs in presence of doxorubicin at 50 nM by Chou-Talalay method; format: functional
[4] = Tmax in Sprague-Dawley rat at 10 mg/kg, IG measured for 5760 mins by LC-MS/MS analysis; format: ADME, organism-based; settings: in vivo, po
MCF7 [5] = assay: Antiproliferative activity against human MCF7 cells overexpressing AKR1C3 assessed as cell survival rate at 50 uM incubated for 72 hrs by MTT assay relative to control; format: functional
[6] = Metabolic stability in liver microsomes (unknown origin) assessed as clearance; format: ADME, Microsome; settings: read-out: CLH
MCF7 [7] = assay: Synergistic antiproliferative activity against human MCF7 cells overexpressing AKR1C3 assessed as dose reduction index for doxorubicin at 10 uM incubated for 72 hrs in presence of doxorubicin at 20 nM by Chou-Talalay method; format: functional
MCF7 [8] = assay: Synergistic antiproliferative activity against human MCF7 cells overexpressing AKR1C3 assessed as combination index at 25 uM incubated for 72 hrs in presence of doxorubicin at 20 nM by Chou-Talalay method; format: functional
[9] = Toxicity in BALB/c nude mouse xenografted with human MCF7 cells expressing AKR1C3 assessed as histopathological changes in kidneys at 10 mg/kg, po administered every 2 days for 3 weeks by H and E staining based analysis; format: organism-based; settings: in vivo, 504 h
[10] = Toxicity in BALB/c nude mouse xenografted with human MCF7 cells expressing AKR1C3 assessed as reduction in body weight at 10 mg/kg, po administered every 2 days for 3 weeks in presence of doxorubicin and measured every 3 days; format: organism-based; settings: in vivo, 504 h
[11] = target: Aldo-keto reductase family 1 member B1 (Homo sapiens, UniProt P15121); assay: Inhibition of AKR1B1 (unknown origin) transfected in Escherichia coli BL21 (DE3) pLysS competent cells using pyridine-3-aldehyde as substrate assessed as inhibition of NADP+ dependent substrate oxidation incubated for 10 mins
[12] = AUC (0 to t) in Sprague-Dawley rat at 10 mg/kg, IG measured for 5760 mins by LC-MS/MS analysis; format: ADME, organism-based; design: time 5760 min, dose 10 mg/kg, route ig; settings: in vivo, po
[13] = Toxicity in BALB/c nude mouse xenografted with human MCF7 cells expressing AKR1C3 assessed as histopathological changes in lungs at 10 mg/kg, po administered every 2 days for 3 weeks in presence of doxorubicin by H and E staining based analysis; format: organism-based; settings: in vivo, 504 h
MCF7 [14] = assay: Synergistic antiproliferative activity against human MCF7 cells overexpressing AKR1C3 assessed as dose reduction index for doxorubicin at 25 uM incubated for 72 hrs in presence of doxorubicin at 100 nM by Chou-Talalay method; format: functional
MCF7 [15] = assay: Synergistic antiproliferative activity against human MCF7 cells overexpressing AKR1C3 assessed as combination index at 10 uM incubated for 72 hrs in presence of doxorubicin at 50 nM by Chou-Talalay method; format: functional
MCF7 [16] = assay: Synergistic antiproliferative activity against human MCF7 cells overexpressing AKR1C3 assessed as combination index at 50 uM incubated for 72 hrs in presence of doxorubicin at 20 nM by Chou-Talalay method; format: functional
[17] = MRT (0 to infinity) in Sprague-Dawley rat at 10 mg/kg, IG measured for 5760 mins by LC-MS/MS analysis; format: ADME, organism-based; settings: in vivo, po
[18] = Elimination phase half life in Sprague-Dawley rat at 10 mg/kg, IG measured for 5760 mins by LC-MS/MS analysis; format: ADME, organism-based; settings: in vivo, po, read-out: beta t1/2 (converted)
[19] = Octanol-water partition coefficient, logP of the compound; format: physicochemical
MCF7 [20] = assay: Synergistic antiproliferative activity against human MCF7 cells overexpressing AKR1C3 assessed as dose reduction index for doxorubicin at 10 uM incubated for 72 hrs in presence of doxorubicin at 200 nM by Chou-Talalay method; format: functional
MCF7 [21] = assay: Synergistic antitumor activity against human MCF7 cells expressing AKR1C3 xenografted in BALB/c nude mouse assessed as tumor growth inhibition at 10 mg/kg, po administered every 2 days for 3 weeks in presence of doxorubicin and measured every 3 days by caliper analysis relative to control; format: functional
[22] = target: Aldo-keto reductase family 1 member B10 (Homo sapiens, UniProt O60218); assay: Inhibition of AKR1B10 (unknown origin) transfected in Escherichia coli BL21 (DE3) pLysS competent cells using pyridine-3-aldehyde as substrate assessed as inhibition of NADP+ dependent substrate oxidation incubated for 10 mins
MCF7 [23] = assay: Synergistic antiproliferative activity against human MCF7 cells overexpressing AKR1C3 assessed as combination index at 50 uM incubated for 72 hrs in presence of doxorubicin at 100 nM by Chou-Talalay method; format: functional
MCF7 [24] = assay: Synergistic antiproliferative activity against human MCF7 cells overexpressing AKR1C3 assessed as combination index at 10 uM incubated for 72 hrs in presence of doxorubicin at 100 nM by Chou-Talalay method; format: functional
MCF7 [25] = assay: Synergistic antiproliferative activity against human MCF7 cells overexpressing AKR1C3 assessed as combination index at 50 uM incubated for 72 hrs in presence of doxorubicin at 200 nM by Chou-Talalay method; format: functional
[26] = target: T1, Aldo-keto reductase family 1 member C2 (Homo sapiens, UniProt P52895); assay: Inhibition of human recombinant AKR1C2 transfected in Escherichia coli BL21 (DE3) pLysS competent cells using S-tetralol as substrate assessed as inhibition of NADP+ dependent substrate oxidation incubated for 10 mins by fluorescence microplate reader assay
T1 sequence (P52895 whole entry): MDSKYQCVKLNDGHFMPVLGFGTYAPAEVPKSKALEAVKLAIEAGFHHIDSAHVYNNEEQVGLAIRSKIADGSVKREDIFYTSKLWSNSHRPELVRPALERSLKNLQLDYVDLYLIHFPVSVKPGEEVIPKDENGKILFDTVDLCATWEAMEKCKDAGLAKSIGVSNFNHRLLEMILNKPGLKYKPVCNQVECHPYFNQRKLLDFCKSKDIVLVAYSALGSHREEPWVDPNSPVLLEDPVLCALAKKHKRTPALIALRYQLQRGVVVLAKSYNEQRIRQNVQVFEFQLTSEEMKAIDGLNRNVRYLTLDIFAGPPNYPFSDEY

[27] = Toxicity in BALB/c nude mouse xenografted with human MCF7 cells expressing AKR1C3 assessed as reduction in body weight at 10 mg/kg, po administered every 2 days for 3 weeks and measured every 3 days; format: organism-based; settings: in vivo, 504 h

Sequence of Aldo-keto reductase family 1 member B10 (O60218 whole entry): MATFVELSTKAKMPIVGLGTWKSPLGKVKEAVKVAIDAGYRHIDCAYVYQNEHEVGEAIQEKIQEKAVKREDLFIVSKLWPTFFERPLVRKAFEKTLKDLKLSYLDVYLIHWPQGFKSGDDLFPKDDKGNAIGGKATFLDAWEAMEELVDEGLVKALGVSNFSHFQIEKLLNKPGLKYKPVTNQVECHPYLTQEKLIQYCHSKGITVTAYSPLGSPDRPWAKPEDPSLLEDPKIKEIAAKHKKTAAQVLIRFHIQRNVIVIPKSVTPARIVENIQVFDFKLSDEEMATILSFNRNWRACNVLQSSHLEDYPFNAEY

## O=C(O)C1(c2ccc(-c3cc(Cl)cc(Cl)c3)c(F)c2)CC1
[1]
  Activity: Non-Toxic
MCF7 [2]
  inhibition (INH): 100%
MCF7 [3]
  Activity_index: 22.177
[4]
  Tmax: 10 h
MCF7 [5]
  Survival: >80%
[6]
  CLint scaled: 4.17 mL/min/kg
MCF7 [7]
  Activity_index: 8.47
MCF7 [8]
  CI: 0.276
[9]
  Activity: Non-Toxic
[10]
  Activity: Non-Toxic
[11]
  IC50: > 10 µM
[12]
  AUC(0-t) at 96 h: 1480 ng·h/mL
[13]
  Activity: Non-Toxic
MCF7 [14]
  Activity_index: 5.813
MCF7 [15]
  CI: 0.285
MCF7 [16]
  CI: 0.246
[17]
  MRT inf: 36.6 h
[18]
  half-life: 21.3 h
[19]
  logP: 1
MCF7 [20]
  Activity_index: 3.821
MCF7 [21]
  TGI: 87.46%
[22]
  IC50: > 10 µM
MCF7 [23]
  CI: 0.214
MCF7 [24]
  CI: 0.326
MCF7 [25]
  CI: 0.154
[26]
  IC50: 1.53 µM
[27]
  Activity: Non-Toxic
